In US8957108B2, “Use of 5,6-dimethylxanthenone-4-acetic acid as an antiviral agent” (University of Maryland, Baltimore, priority 2006, dated 2015):

Columns and labels:
peritoneal macrophages = assay: Cytokine analysis of macrophage culture supernatants; type: cell-based, mouse; details: supernatants at 24 h
MEFs = assay: RANTES protein in MEF supernatants; type: cell-based, mouse; details: 24 h
Procedure: IFN-β protein in cell culture supernatants was measured using a custom ELISA originally described in Weinstein, S. L. et al. (2000) “Phosphatidylinositol 3-Kinase And mTOR Mediate Lipopolysaccharide-Stimulated Nitric Oxide Production In Macrophages Via Interferon-Beta,” J. Leukocyte Biol. 67:405-414, with few modifications. […] Plates were blocked with 10% FCS in 1×PBS for 2 h at room temperature. Samples and a murine IFN-β standard (NIH, Bethesda, Md.) were added to wells and incubated overnight at 4° C. […] Wells were washed 3× followed by incubation with a 1:2000 dilution of goat anti-rabbit HRP (Cell Signaling Technologies, Beverly, Mass.) in 10% FCS-PBS for 1 h at room temperature. Plates were washed 3× and developed with TMB substrate (KPL, Gaithersburg, Md.). The reaction was stopped by addition of 1N H2SO4, and plates were read at 450 nm. RANTES and TNF-α were quantified using Luminex bead-based colorimetric assays. […] For stimulation of cells, poly(I:C) was mixed with Fugene 6 transfection reagent (Roche) at a ratio of 1:1 (volume:weight) in OptiMEM medium and incubated for 15 min prior to stimulation. Culture supernatants of cells (2×10^4) seeded on 96-well plates were collected after 24 h stimulation and analyzed for RANTES levels with ELISA. ELISA was performed according to the manufacturer's instructions (R&D Systems).

[1] = test system: IκBα, NF-κB, p38, ERK, and JNK MAPK; assay: IκBα, NF-κB and MAPK activation in macrophages; type: cell-based, mouse
Ft LVS = details: DMXAA alone (100 μg/ml), over a 24 hr period
[2] = test system: Francisella tularensis LVS; type: cell-based; details: Ft LVS-infected macrophages

Cc1ccc2c(=O)c3cccc(CC(=O)O)c3oc2c1C [DMXAA, 5,6-dimethylxanthenone-4-acetic acid]
RANTES production in IRF-3−/− macrophages (peritoneal macrophages): fail to produce RANTES | secretion of TNF-α in IRF-3-deficient macrophages (peritoneal macrophages): reduced to background levels | RANTES secretion in RIG-I−/− MEFs (MEFs): intact | induced RANTES in TRIF−/− MEFs (MEFs): unaffected by the absence of TRIF | RANTES response in MAVS-deficient MEFs (MEFs; MAVS+/+ and MAVS−/− MEFs): induces RANTES via a MAVS-independent pathway | activation of p38, ERK, and JNK MAPK ([1]; C57BL/6 macrophages): no discernible effect | NF-κB translocation / binding activity ([1]; RAW 264.7 macrophage-like cell line): little effect | level of IκBα protein ([1]; primary macrophages): little effect | effect on Ft LVS replication (Ft LVS): no effect | time to reduce a bacterial burden compared with rIFN-β [2]: took longer | reduction of bacterial burden ([2]; 100 μg/ml, within 24 hr): 10 fold
